≈ marks a conversion by molar mass, not a printed value. Where a SMILES comes first, the peptide text is derived from it.
Key:
Format in all cases: cell-based
E. coli NCTC 9001 [1] = assay: Bactericidal activity, method not stated; conditions: lyophilized apidaecins resuspended in PBS
[2] = tested on: Escherichia coli NCTC 9001; assay: Minimal inhibitory concentration in liquid culture; conditions: 200 μl rich medium, 10^4 log-phase bacteria
[3] = tested on: Salmonella typhimurium ATCC 23565; assay: Minimal inhibitory concentration in liquid culture; conditions: 200 μl rich medium, 10^4 log-phase bacteria
[4] = tested on: Citrobacter freundii ATCC 8090; assay: Minimal inhibitory concentration in liquid culture; conditions: 200 μl rich medium, 10^4 log-phase bacteria
[5] = tested on: Erwinia salicis NCPPB 2530; assay: Minimal inhibitory concentration in liquid culture; conditions: 200 μl rich medium, 10^4 log-phase bacteria
[6] = tested on: Pseudomonas solanacearum ATCC 11696; set-up: key: --: "-" means that no inhibition has been found; conditions: * synthetic ApidIa and heattreated immune lymph instead of Bee6 and native immune lymph
[7] = tested on: Rhizobium meliloti ZB 314; assay: Minimal inhibitory concentration in liquid culture; conditions: 200 μl rich medium, 10^4 log-phase bacteria
[8] = tested on: Pseudomonas syringae pv. tabaci NCPPB 1237; assay: Inhibition zone assay; conditions: * synthetic ApidIa and heattreated immune lymph instead of Bee6 and native immune lymph
[9] = tested on: Pseudomonas syringae pv. tomato NCPPB 1106; assay: Minimal inhibitory concentration in liquid culture; conditions: 200 μl rich medium, 10^4 log-phase bacteria
Salmonella Newport CD 94 = assay: Minimal inhibitory concentration in liquid culture; conditions: 200 μl rich medium, 10^4 log-phase bacteria
[10] = tested on: Erwinia carotovora var carotovora NCPPB 312; assay: Minimal inhibitory concentration in liquid culture; conditions: 200 μl rich medium, 10^4 log-phase bacteria
[11] = tested on: protoplasts derived from Lactobacillus sp; assay: Protoplast regeneration, agar diffusion assay; conditions: Lactobacillus protoplasts on RM MRS medium, 4 μg/well
Experimental: Protoplasts were made using lysozyme concentrations ranging between 0 and 5 mg/ml and then incubated for 1 hour in the presence of Apid Ia (concentrations ranging between 0-10 μg/ml) . Cells were pelleted, resuspended and plated out on RM MRS. To estimate the ratio of protoplasts/normal cells, controls were plated out on MRS without the stabilizing sucrose. This prevented the regenerating of the protoplasts and enabled the deduction of the number of normal cells. To evaluate the regeneration capability of the said protoplasts in the presence of Apid Ia an agar diffusion assay was performed : the protoplasts were applied on RM MRS medium, wells were made and filled up with an apidaecin solution (4 μg/well).

[12] = tested on: Pseudomonas syringae pv. maculicola NCPPB 1776; assay: Minimal inhibitory concentration in liquid culture; conditions: 200 μl rich medium, 10^4 log-phase bacteria
[13] = tested on: Yersinia enterocolitica PGS C-1106; assay: Inhibition zone assay; conditions: * synthetic ApidIa and heattreated immune lymph instead of Bee6 and native immune lymph
[14] = tested on: Xanthomonas campestris pv. campestris A 902; assay: Inhibition zone assay; set-up: key: --: "-" means that no inhibition has been found; conditions: * synthetic ApidIa and heattreated immune lymph instead of Bee6 and native immune lymph
[15] = tested on: Xanthomonas campestris pv. campestris A 902; assay: Minimal inhibitory concentration in liquid culture; conditions: 200 μl rich medium, 10^4 log-phase bacteria, + = no inhibition at maximal value
[16] = tested on: Agrobactierium tumefaciens DSM 3129; assay: Minimal inhibitory concentration in liquid culture; conditions: 200 μl rich medium, 10^4 log-phase bacteria
E. coli NCTC 9001 [17] = conditions: E. coli NCTC 9001; 4 μg/well
Experimental: Whole lymph or purified components, resuspended in PBS to a final volume equal to the starting material (heated lymph), was applied in 3 mm wells on agar plates seeded with the test organisms. Antibacterial activity was determined by measuring the growth-inhibition zones (in mm).
Test conditions: agar inhibition zone obtained with 10 namomole apidaecin, resuspended in 20 μl H2 O/well.

[18] = tested on: Bacillus megaterium QB 1551; assay: Minimal inhibitory concentration in liquid culture; conditions: 200 μl rich medium, 10^4 log-phase bacteria, + = no inhibition at maximal value
[19] = tested on: Xanthomonas campestris pv. vesicatoria LMG 905; assay: Minimal inhibitory concentration in liquid culture; conditions: 200 μl rich medium, 10^4 log-phase bacteria, + = no inhibition at maximal value
Experimental: (§1) In addition the exact concentration was determined precisely by amino-acid analysis and an equal sample of natural Bee 6b was prepared, allowing to compare the bactericidal activity of both natural and synthetic apidaecins by means of growth inhibition assays in liquid cultures (see mat & Meth.). The minimal inhibitory concentrations (μg/ml) were determined in liquid culture : 200 μl of a rich medium (trypticase soy broth or nutrient broth) was inoculated with 10^4 log-phase bacteria. Peptide concentrations ranged between 0 and 200 μg/ml. The values express μg/ml; when no inhibition was noticed the maximal values are given (+200 μg/ml or +50 μg/ml). All peptides were chemically synthesized, except for bee 6b which is purified from bee lymph.

Shigella flexneri CP 87 = assay: Minimal inhibitory concentration in liquid culture; conditions: 200 μl rich medium, 10^4 log-phase bacteria
Experimental: as §1

[20] = tested on: Corynebacterium insidiosum NCPPB 1109; assay: Minimal inhibitory concentration in liquid culture; conditions: 200 μl rich medium, 10^4 log-phase bacteria
Experimental: as §1

[21] = tested on: Corynebacterium michiganense pv. michiganense NCPPB 1573; assay: Minimal inhibitory concentration in liquid culture; conditions: 200 μl rich medium, 10^4 log-phase bacteria, + = no inhibition at maximal value
Experimental: as §1

[22] = tested on: Pseudomonas solanacearum ATCC 11696; conditions: 200 μl rich medium, 10^4 log-phase bacteria
[23] = tested on: Erwinia carotovora var atroseptica LMG 2385; assay: Minimal inhibitory concentration in liquid culture; conditions: 200 μl rich medium, 10^4 log-phase bacteria
[24] = tested on: Pseudomonas syringae pv. maculicola NCPPB 1776; assay: Inhibition zone assay; conditions: * synthetic ApidIa and heattreated immune lymph instead of Bee6 and native immune lymph
[25] = tested on: Pseudomonas syringae pv. tabaci NCPPB 1237; assay: Minimal inhibitory concentration in liquid culture; conditions: 200 μl rich medium, 10^4 log-phase bacteria
[26] = tested on: Pseudomonas syringae pv. tomato NCPPB 1106; assay: Inhibition zone assay; conditions: * synthetic ApidIa and heattreated immune lymph instead of Bee6 and native immune lymph

CC[C@H](C)[C@H](NC(=O)[C@H](CCCNC(=N)N)NC(=O)[C@@H]1CCCN1C(=O)[C@H](Cc1c[nH]cn1)NC(=O)[C@@H]1CCCN1C(=O)[C@@H]1CCCN1C(=O)[C@H](CCCNC(=N)N)NC(=O)[C@@H]1CCCN1C(=O)[C@H](CCC(N)=O)NC(=O)[C@@H]1CCCN1C(=O)[C@@H](NC(=O)[C@H](Cc1ccc(O)cc1)NC(=O)[C@@H](NC(=O)[C@@H]1CCCN1C(=O)[C@H](CCCNC(=N)N)NC(=O)[C@H](CC(N)=O)NC(=O)[C@H](CC(N)=O)NC(=O)CN)C(C)C)[C@@H](C)CC)C(=O)O [Apid Ia] (H-GNNRPVYIPQPRPPHPRI-OH)
bactericidal activity (E. coli NCTC 9001 [1]): possessed a bactericidal activity | minimal inhibitory concentration [2]: 0.1 µg/mL (≈ 0.0474 µM) | minimal inhibitory concentration [3]: 0.1 µg/mL (≈ 0.0474 µM) | minimal inhibitory concentration [4]: 0.15 µg/mL (≈ 0.0711 µM) | minimal inhibitory concentration [5]: 0.02 µg/mL (≈ 0.00949 µM) | diameter of growth-inhibition zone [6]: -- | minimal inhibitory concentration [7]: 0.1 µg/mL (≈ 0.0474 µM) | diameter of growth-inhibition zone [8]: 7 mm | minimal inhibitory concentration [9]: 0.2 µg/mL (≈ 0.0949 µM) | minimal inhibitory concentration (Salmonella Newport CD 94): 0.2 µg/mL (≈ 0.0949 µM) | minimal inhibitory concentration [10]: 1 µg/mL (≈ 0.474 µM) | inhibition zone, regeneration of protoplasts [11]: No inhibition zone was noticed | minimal inhibitory concentration [12]: 0.5 µg/mL (≈ 0.237 µM) | diameter of growth-inhibition zone [13]: 9 mm | diameter of growth-inhibition zone [14]: -- | minimal inhibitory concentration [15]: > 50 µg/mL | minimal inhibitory concentration [16]: 0.2 µg/mL (≈ 0.0949 µM) | inhibition zone, positive control of the protoplast test (E. coli NCTC 9001 [17]): clear inhibition zone | minimal inhibitory concentration [18]: 150 µg/mL | minimal inhibitory concentration [19]: > 50 µg/mL | minimal inhibitory concentration (Shigella flexneri CP 87): 0.1 µg/mL (≈ 0.0474 µM) | minimal inhibitory concentration [20]: 50 µg/mL (≈ 23.7 µM) | minimal inhibitory concentration [21]: > 50 µg/mL | minimal inhibitory concentration [22]: 25 µg/mL (≈ 11.9 µM) | minimal inhibitory concentration [23]: 1 µg/mL (≈ 0.474 µM) | diameter of growth-inhibition zone [24]: 8 mm | minimal inhibitory concentration [25]: 0.5 µg/mL (≈ 0.237 µM) | diameter of growth-inhibition zone [26]: 9 mm
